According to patent publication US20110028559A1, “SUBSTITUTED FLUOROETHYL UREAS AS ALPHA 2 ADRENERGIC AGENTS” (priority 2007, published 2011):

Target: T1, Alpha 2C (Homo sapiens, UniProt P18825)
T1 sequence (P18825 1-462): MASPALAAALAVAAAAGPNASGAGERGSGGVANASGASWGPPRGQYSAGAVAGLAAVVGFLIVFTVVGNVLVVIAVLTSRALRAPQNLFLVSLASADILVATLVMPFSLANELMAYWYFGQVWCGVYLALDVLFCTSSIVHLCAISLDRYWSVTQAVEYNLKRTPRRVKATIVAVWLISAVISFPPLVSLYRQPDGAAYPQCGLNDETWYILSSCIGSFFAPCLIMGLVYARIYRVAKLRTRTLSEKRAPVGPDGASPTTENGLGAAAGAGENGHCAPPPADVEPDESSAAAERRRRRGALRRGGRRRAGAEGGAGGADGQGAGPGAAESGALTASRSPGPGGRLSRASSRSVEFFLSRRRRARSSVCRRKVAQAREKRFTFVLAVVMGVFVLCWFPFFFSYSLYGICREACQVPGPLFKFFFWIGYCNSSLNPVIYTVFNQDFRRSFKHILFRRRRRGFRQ
Test: Alpha 2C adrenergic receptor functional activity (procedure of U.S. 60/911,442)
Type: cell-based
Text: U.S. Provisional Patent Application Ser. No. 60/911,442, filed Apr. 12, 2007, describes the procedure used to obtain the data in the table below. That procedure is incorporated by reference herein.

- Alpha 2C EC50: not active
SMILES: CCC[C@@H]1CCCC[C@H]1NC(=O)NCCF [1-(2-Fluoro-ethyl)-3-(2R-propyl-1R-cyclohexyl)-urea]
